Results: patent US20100022475A1, “NOVEL TRIAZOLOPYRIMIDINE DERIVATIVES” (priority 2004, published 2010)

Columns and labels:
Alternaria solani = Alternaria solani / tomato / preventive; assay type: in vivo; conditions: 200 ppm, spray, tomato plants cv. Roter Gnom, assessed 4 days after inoculation
Botrytis cinerea = Botrytis cinerea / tomato / preventive; assay type: in vivo; conditions: 200 ppm, spray, tomato plants cv. Roter Gnom, assessed 3 days after inoculation
Puccinia recondita = Puccinia recondita / wheat / preventive (brown rust); assay type: in vivo; conditions: 200 ppm, spray, wheat plants cv. Arina, assessed 11 days after inoculation
[1] = tested on: Magnaporthe grisea (Pyricularia oryzae); assay type: in vivo; conditions: 200 ppm, spray, rice plants cv. Koshihikari, preventive, assessed 6 days after inoculation
[2] = tested on: Pyrenophora teres (Helminthosporium teres); test: Pyrenophora teres (Helminthosporium teres) / barley / preventive (net blotch); assay type: in vivo; conditions: 200 ppm, spray, barley plants cv. Regina, assessed 4 days after inoculation
Septoria tritici = Septoria tritici / wheat / preventive (Septoria leaf spot); assay type: in vivo; conditions: 200 ppm, spray, wheat plants cv. Riband, assessed 16-18 days after inoculation

| SMILES | inhibits fungal infestation (Alternaria solani) [%] | inhibits fungal infestation (Botrytis cinerea) [%] | inhibits fungal infestation (Puccinia recondita) [%] | inhibits fungal infestation [1] [%] | inhibits fungal infestation [2] [%] | inhibits fungal infestation (Septoria tritici) [%] | melting point [°C] |
| --- | --- | --- | --- | --- | --- | --- | --- |
| C[Si]1(CNc2c(-c3c(F)cc(F)cc3F)c(Cl)nc3ncnn23)CCCC1 [I.d.081, [5-chloro-6-(2,4,6-trifluoro-phenyl)-[1,2,4]triazolo[1,5-a]pyrimidin-7-yl]-(1-methyl-silolan-1-ylmethyl)-amine] | ≥ 80 | ≥ 80 | ≥ 80 | ≥ 80 | ≥ 80 | ≥ 80 | 138 to 139 |
| C[Si]1(CNc2c(-c3c(F)cc(F)cc3F)c(Cl)nc3ncnn23)CCCCC1 [I.o.081, [5-chloro-6-(2,4,6-trifluoro-phenyl)-[1,2,4]triazolo[1,5-a]pyrimidin-7-yl]-(1-methyl-silinan-1-ylmethyl)-amine] | – | – | – | – | – | – | 150 to 152 |
